Experimental data as given in ChEMBL document CHEMBL3046892, “Sensitivity difference to insecticides of a riverine caddisfly, Cheumatopsyche brevilineata (Trichoptera: Hydropsychidae), depending on the larval stages and strains” (J Pestic Sci, 2009).
≈ marks a conversion by molar mass, not a printed value.

Assays:
Cheumatopsyche [1] = experiment: Insecticidal activity against fifth-instar larvae of Cheumatopsyche brevilineata K after 48 hr; format: functional, organism-based
Cheumatopsyche [2] = experiment: Insecticidal activity against fifth-instar larvae of Cheumatopsyche brevilineata M after 48 hr; format: functional, organism-based
Cheumatopsyche [3] = experiment: Ratio of EC50 for fifth-instar larvae of Cheumatopsyche brevilineata M to EC50 for first instar larvae of Cheumatopsyche brevilineata M; format: functional
Cheumatopsyche [4] = experiment: Ratio of EC50 for fifth-instar larvae of Cheumatopsyche brevilineata K to EC50 for first instar larvae of Cheumatopsyche brevilineata K; format: functional
Cheumatopsyche [5] = experiment: Insecticidal activity against first-instar larvae of Cheumatopsyche brevilineata K after 48 hr; format: functional, organism-based
Cheumatopsyche [6] = experiment: Insecticidal activity against first-instar larvae of Cheumatopsyche brevilineata M after 48 hr; format: functional, organism-based
Cheumatopsyche [7] = experiment: Insecticidal activity against first to fifth instar larvae of Cheumatopsyche brevilineata K after 48 hr; format: functional, organism-based

Structure (SMILES)	EC50 (Cheumatopsyche [1]) [mg/L]	EC50 (Cheumatopsyche [2]) [mg/L]	Ratio EC50 (Cheumatopsyche [3])	Ratio EC50 (Cheumatopsyche [4])	EC50 (Cheumatopsyche [5]) [mg/L]	EC50 (Cheumatopsyche [6]) [mg/L]	EC50 (Cheumatopsyche [7]) [mg/L]
COP(=S)(OC)Oc1ccc([N+](=O)[O-])c(C)c1 [FENITROTHION]	0.741 (≈ 2.67 µM)	0.0265 (≈ 0.0956 µM)	4.3	28.4	0.0261 (≈ 0.0941 µM)	0.00623 (≈ 0.0225 µM)	–
CCC(C)c1ccccc1OC(=O)NC (stereo not given) [FENOBUCARB]	0.291 (≈ 1.4 µM)	0.0919 (≈ 0.443 µM)	10.3	36.9	0.00789 (≈ 0.0381 µM)	0.00948 (≈ 0.0457 µM)	–
O=[N+]([O-])/N=C1\NCCN1Cc1ccc(Cl)nc1 [IMIDACLOPRID]	–	0.0379 (≈ 0.148 µM)	–	–	–	0.00664 (≈ 0.026 µM)	0.00654 (≈ 0.0256 µM)
